Assay results as given in ChEMBL document CHEMBL1201862, “PubChem BioAssay data set” (2004).
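Cultured in 96-well plates, cells were exposed to test compound for 48 hours across five concentrations. Here, GI50 denotes the concentration required for 50% inhibition of growth.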 Calls of active or inactive are those of the source. Cut-off read from the data, not from the text of the source: active = GI50 up to about 1.1 µM and inactive = higher.

Experiments:
Test in all cases: NCI tumour cell line growth inhibition, 48 h
Malme-3M = system: Malme-3M
RPMI-8226 = system: RPMI-8226
DU-145 = system: DU-145
NCI-H23 = system: NCI-H23
UACC-257 = system: UACC-257
NCI-H460 = system: NCI-H460
OVCAR-5 = system: OVCAR-5
MDA-MB-435 = system: MDA-MB-435
SK-MEL-28 = system: SK-MEL-28
SK-MEL-2 = system: SK-MEL-2
HT-29 = system: HT-29
786-0 = system: 786-0
U-251 = system: U-251
HCC 2998 = system: HCC 2998
SNB-19 = system: SNB-19
OVCAR-8 = system: OVCAR-8
MDA-N = system: MDA-N
T47D = system: T47D
K562 = system: K562
HOP-92 = system: HOP-92

Measured: GI50

O=c1c2cc([N+](=O)[O-])cnc2sn1-c1ccc([N+](=O)[O-])cc1
inactive: Malme-3M 14.2 µM | RPMI-8226 23.9 µM | DU-145 45.7 µM | NCI-H23 31.2 µM | UACC-257 > 100 µM | NCI-H460 45.1 µM | OVCAR-5 59.2 µM | MDA-MB-435 84.1 µM | SK-MEL-28 82.4 µM | SK-MEL-2 23.8 µM | HT-29 21.8 µM | 786-0 40.4 µM | U-251 49.5 µM | HCC 2998 43.8 µM | SNB-19 30.1 µM | OVCAR-8 42.5 µM | MDA-N 87.7 µM | T47D 14.7 µM

COc1ccccc1NC(=O)C(=O)C(C#N)CC(C)(C)C=O (stereo not drawn)
inactive: Malme-3M > 100 µM | RPMI-8226 > 100 µM | NCI-H23 > 100 µM | K562 > 100 µM | UACC-257 > 100 µM | NCI-H460 > 100 µM | HOP-92 > 100 µM | OVCAR-5 > 100 µM | MDA-MB-435 > 100 µM | SK-MEL-28 > 100 µM | SK-MEL-2 > 100 µM | HT-29 > 100 µM | 786-0 > 100 µM | U-251 > 100 µM | HCC 2998 > 100 µM | OVCAR-8 > 100 µM | MDA-N > 100 µM | T47D > 100 µM

Nc1nc(Nc2ccccc2)sc1C(=O)c1ccco1
inactive: Malme-3M 26.9 µM | RPMI-8226 16.1 µM | DU-145 14.7 µM | NCI-H23 14.6 µM | K562 8.55 µM | UACC-257 30.8 µM | NCI-H460 12.8 µM | HOP-92 35.6 µM | OVCAR-5 34 µM | MDA-MB-435 16.4 µM | SK-MEL-28 32.8 µM | SK-MEL-2 15.2 µM | HT-29 14.4 µM | 786-0 12.7 µM | U-251 22.7 µM | SNB-19 19.9 µM | MDA-N 17.2 µM | T47D 14.9 µM

C=C=C(C)[Si](C)(C)C
inactive: Malme-3M > 100 µM | RPMI-8226 > 100 µM | DU-145 > 100 µM | NCI-H23 > 100 µM | K562 > 100 µM | UACC-257 > 100 µM | NCI-H460 > 100 µM | OVCAR-5 > 100 µM | MDA-MB-435 > 100 µM | SK-MEL-28 > 100 µM | SK-MEL-2 > 100 µM | HT-29 > 100 µM | 786-0 > 100 µM | U-251 > 100 µM | HCC 2998 > 100 µM | SNB-19 > 100 µM | OVCAR-8 > 100 µM | MDA-N > 100 µM | T47D > 100 µM

CN(C)CCNC(=O)c1cccc(CO)c1[N+](=O)[O-]
inactive: Malme-3M > 100 µM | DU-145 > 100 µM | NCI-H23 > 100 µM | K562 > 100 µM | UACC-257 > 100 µM | NCI-H460 > 100 µM | OVCAR-5 > 100 µM | MDA-MB-435 > 100 µM | SK-MEL-28 > 100 µM | SK-MEL-2 > 100 µM | HT-29 > 100 µM | 786-0 > 100 µM | U-251 > 100 µM | HCC 2998 > 100 µM | SNB-19 > 100 µM | OVCAR-8 > 100 µM | MDA-N > 100 µM | T47D > 100 µM

CS/C(Nc1ccccc1)=C1\C(=O)N(c2ccccc2)N=C1C
inactive: Malme-3M > 100 µM | RPMI-8226 > 100 µM | DU-145 > 100 µM | NCI-H23 > 100 µM | K562 > 100 µM | UACC-257 > 100 µM | NCI-H460 > 100 µM | OVCAR-5 > 100 µM | MDA-MB-435 > 100 µM | SK-MEL-28 > 100 µM | SK-MEL-2 > 100 µM | HT-29 > 100 µM | 786-0 > 100 µM | U-251 > 100 µM | HCC 2998 > 100 µM | SNB-19 > 100 µM | OVCAR-8 > 100 µM | MDA-N > 100 µM | T47D > 100 µM

O=C(Nc1ccccc1F)c1cc2ccc(O)cc2o/c1=N\c1cccc(F)c1
inactive: Malme-3M 21.6 µM | RPMI-8226 3.24 µM | DU-145 15 µM | NCI-H23 2.16 µM | K562 4.42 µM | UACC-257 19.5 µM | NCI-H460 6.35 µM | OVCAR-5 23.7 µM | MDA-MB-435 14.8 µM | SK-MEL-28 12.3 µM | SK-MEL-2 14.3 µM | HT-29 37.5 µM | 786-0 15 µM | U-251 12.4 µM | HCC 2998 15.3 µM | SNB-19 15.9 µM | OVCAR-8 9.48 µM | MDA-N 14.6 µM | T47D 4.25 µM

CC(=O)OC1CC2CCC1(C)C2(C)C (stereo not drawn)
inactive: Malme-3M > 100 µM | RPMI-8226 > 100 µM | DU-145 > 100 µM | NCI-H23 > 100 µM | K562 > 100 µM | UACC-257 > 100 µM | NCI-H460 > 100 µM | OVCAR-5 > 100 µM | MDA-MB-435 > 100 µM | SK-MEL-28 > 100 µM | SK-MEL-2 > 100 µM | HT-29 > 100 µM | 786-0 > 100 µM | U-251 > 100 µM | HCC 2998 > 100 µM | SNB-19 > 100 µM | OVCAR-8 > 100 µM | MDA-N > 100 µM | T47D > 100 µM

COCC1OCCN1C (stereo not drawn)
inactive: Malme-3M > 100 µM | RPMI-8226 > 100 µM | NCI-H23 > 100 µM | K562 > 100 µM | UACC-257 > 100 µM | NCI-H460 > 100 µM | HOP-92 > 100 µM | OVCAR-5 > 100 µM | MDA-MB-435 > 100 µM | SK-MEL-2 > 100 µM | HT-29 > 100 µM | 786-0 > 100 µM | U-251 > 100 µM | SNB-19 > 100 µM | OVCAR-8 > 100 µM | MDA-N > 100 µM | T47D > 100 µM

COC(C)(C)[C@@H]1CCCN1C1=C(C)C(=O)OC1
inactive: Malme-3M > 100 µM | RPMI-8226 > 100 µM | DU-145 > 100 µM | NCI-H23 > 100 µM | K562 > 100 µM | NCI-H460 > 100 µM | OVCAR-5 > 100 µM | SK-MEL-2 > 100 µM | 786-0 > 100 µM | U-251 > 100 µM | HCC 2998 > 100 µM | SNB-19 > 100 µM | MDA-N > 100 µM | T47D > 100 µM

COc1ccc(C2=Nn3c(nnc3-c3ccccc3)S/C2=C\c2ccc(-c3ccc([N+](=O)[O-])cc3)o2)cc1
inactive: Malme-3M 34.8 µM | RPMI-8226 13.1 µM | K562 13.3 µM | UACC-257 44.7 µM | NCI-H460 27.4 µM | HOP-92 54.8 µM | OVCAR-5 47.6 µM | MDA-MB-435 5.83 µM | SK-MEL-28 69.7 µM | SK-MEL-2 15.8 µM | HT-29 26.4 µM | 786-0 24.9 µM | U-251 22.6 µM | HCC 2998 28 µM | SNB-19 33.3 µM | OVCAR-8 30.5 µM | MDA-N 7.6 µM | T47D 18.6 µM

CC(=O)OCC(OC(C)=O)C(OC(C)=O)C(OC(C)=O)C(C=NN(C(C)=O)S(=O)(=O)c1ccc(/C=C2\NC(=O)N(C)C2=O)cc1)OC(C)=O (stereo not drawn)
inactive: Malme-3M 25.5 µM | RPMI-8226 24.2 µM | DU-145 33 µM | NCI-H23 34.5 µM | K562 21.4 µM | UACC-257 43.9 µM | NCI-H460 22.1 µM | OVCAR-5 83.2 µM | MDA-MB-435 36.3 µM | SK-MEL-2 31.5 µM | HT-29 34.9 µM | 786-0 22.1 µM | U-251 32.1 µM | HCC 2998 30.5 µM | SNB-19 45 µM | OVCAR-8 25.6 µM | MDA-N 35.7 µM | T47D 27.1 µM

CCOC(=O)/C(C#N)=C/c1ccc(CO)o1
inactive: Malme-3M > 100 µM | RPMI-8226 > 100 µM | DU-145 > 100 µM | NCI-H23 > 100 µM | K562 > 100 µM | UACC-257 > 100 µM | NCI-H460 > 100 µM | OVCAR-5 > 100 µM | MDA-MB-435 > 100 µM | SK-MEL-28 > 100 µM | HT-29 > 100 µM | 786-0 > 100 µM | U-251 > 100 µM | HCC 2998 > 100 µM | SNB-19 > 100 µM | OVCAR-8 > 100 µM | MDA-N > 100 µM | T47D > 100 µM

O=c1c2ccccc2nc(N/N=C/c2ccc([N+](=O)[O-])cc2)n1-c1ccccc1
inactive: Malme-3M 35.9 µM | RPMI-8226 > 100 µM | DU-145 26.9 µM | NCI-H23 61.1 µM | K562 52.1 µM | UACC-257 15.6 µM | NCI-H460 > 100 µM | OVCAR-5 > 100 µM | MDA-MB-435 42.4 µM | SK-MEL-28 10.7 µM | HT-29 > 100 µM | 786-0 5.37 µM | U-251 15.1 µM | SNB-19 20.7 µM | OVCAR-8 37.8 µM | MDA-N 57.5 µM | T47D 9.59 µM

N#Cc1cnn2cc[nH]c12
inactive: DU-145 > 100 µM | NCI-H23 > 100 µM | K562 > 100 µM | UACC-257 > 100 µM | NCI-H460 > 100 µM | OVCAR-5 > 100 µM | SK-MEL-28 > 100 µM | SK-MEL-2 > 100 µM | HT-29 > 100 µM | 786-0 > 100 µM | U-251 > 100 µM | HCC 2998 > 100 µM | SNB-19 > 100 µM | OVCAR-8 > 100 µM | MDA-N > 100 µM | T47D > 100 µM

O=c1[nH]c(=O)n(C2CC(O)C(CO)O2)cc1/N=N/NCCc1ccccc1 (stereo not drawn)
inactive: Malme-3M > 100 µM | RPMI-8226 > 100 µM | DU-145 > 100 µM | NCI-H23 > 100 µM | K562 > 100 µM | UACC-257 > 100 µM | NCI-H460 > 100 µM | OVCAR-5 > 100 µM | MDA-MB-435 > 100 µM | SK-MEL-28 > 100 µM | HT-29 > 100 µM | 786-0 > 100 µM | U-251 > 100 µM | SNB-19 > 100 µM | OVCAR-8 > 100 µM | MDA-N > 100 µM | T47D > 100 µM
